“Also recorded” adds a separate entry of the source.
What was measured:
[1] = administered orally; high rates of metabolism in gut / small intestine and liver; cited from earlier work
[2] = system: patients with RA; conditions: cited from earlier work
[3] = system: cirrhotic subjects with RA; assay: Open-label, single-arm clinical study of docarpamine on ascites formation (frequency of LVP, volume of ascitic fluid drained); format: in vivo, human
Experimental: An open-label, single-arm study in which each subject serves as his/her own control is conducted. The study assesses the effect of DCP treatment on ascites formation in cirrhotic subjects with RA, by examining the frequency of LVP and the volume of ascitic fluid drained. All subjects participate in a 90-day open-label treatment period. […] Ascites history (relevant medications, LVP dates, and volume of drained fluid) for the 90 days prior to treatment and the 90 days after treatment are collected and used for comparison with on-treatment frequency and volume. The study population consists of cirrhotic patients between 18 and 70 years of age, inclusive, with refractory ascites, subject to the following inclusion and exclusion criteria. • Patients 18 years to 70 years of age. • Documented cirrhosis of the liver. • Refractory ascites, defined as ascites not manageable with diuretics and diet restriction, managed with periodic large volume therapeutic paracentesis. • Patients must have therapeutic […] 3 days prior to enrollment and a documented minimum of 3 additional therapeutic […] 90 days prior to enrollment, with at least 1 every 30 days. • Outpatient, with expected survival of at least 6 months. • Willing and able to complete an informed consent form.

[4] = system: RA patients; conditions: small cohort of RA patients; cited from earlier work
[5] = high dose 4500 mg per day (1500 mg 3 times per day), 90 days treatment, on average, vs 90 days prior to treatment

SMILES	oral bioavailability [1]	changes of blood urea nitrogen, creatinine, creatinine clearance, blood pressure, pulse rate, serum sodium, serum aldosterone and GFR [2]	effective renal plasma flow [2]	effects on LVP, ascites volume and renal markers at low dose ([3]; 750 mg 3 times per day (2250 mg per day), 90 days: effects not observed)	time during which patients do not require LVP ([3]; 4500 mg per day group, some patients / others)	other markers of improved renal function ([3]; 4500 mg per day, 90 days)	sodium excretion ([3]; 4500 mg per day, 90 days)	Renin and/or aldosterone levels ([3]; 4500 mg per day, many patients, in some cases to normal)	urinary output on treatment ([3]; 4500 mg per day, most patients, from 500-1000 ml before, printed '1500-2000 ml or more') [mL]	frequency of LVP over 90 days [3, 5]	volume of ascites removed over 90 days [3, 5]	frequency and volume of LVP once a patient stops treatment ([3]; off-treatment follow-up after 90 days at 4500 mg per day)	persistence of the decrease in LVP after stopping treatment ([3]; off-treatment follow-up, before beginning to increase again)	efficacy in refractory ascites [4]
NCCc1ccc(O)c(O)c1 [dopamine]	not orally bioavailable	no difference	Positive effects	–	–	–	–	–	–	–	–	–	–	–
CCOC(=O)Oc1ccc(CCNC(=O)[C@H](CCSC)NC(C)=O)cc1OC(=O)OCC [docarpamine]	–	–	–	only in the high dose	more than one month; also recorded: more than two months	respond positively	Increased	reduced	1500 to 2000	reduced by more than half	reduced by more than half	greater decreases	one or more months	effective
